Test results published in patent US4599357A, “1-mercaptoalkanoylindoline-2-carboxylic acids” (Ciba-Geigy Corporation, priority 1980, dated 1986).

Test system: angiotensin I converting enzyme
Experiment: inhibition of the angiotensin I pressor response in anesthetized normotensive rats
Assay type: in vivo
Experimental: The enzyme renin, normally causes specific hydrolysis of the circulating protein renin-substrate. This hydrolysis generates angiotensin I, which is further hydrolyzed by the action of said converting enzyme to the potent vasoconstrictor angiotensin II. The inhibition of said enzyme prevents the generation of angiotensin II from I and, therefore, attenuates any pressure response following an angiotensin I challenge.
The corresponding in vivo test is performed with male, normotensive rats, which are anesthetized with 100-120 mg/kg i.p. of sodium ethyl-(1-methylpropyl)malonylthiourea. A femoral artery and saphenous vein are cannulated for direct blood pressure measurement and i.v. administration of angiotensin I and compounds of this invention. After the basal blood pressure is stabilized, pressor responses to 3 challenges of 0.33 μg/kg of angiotensin I i.v., in 5 minute intervals, are obtained. Such pressure responses are again obtained 5, 10, 15, 30 and 60 minutes after either i.v., or p.o. administration (stomach tube) of the compounds to be tested, and compared with the initial responses. Any observed decrease of said pressor response is an indication of angiotensin I converting enzyme inhibition, ranging up to 80% after 10 mg/kg i.v., or 50 mg/kg p.o. doses, which decrease may be sustained up to 60 minutes.

With C[C@H](CS)C(=O)N1c2ccccc2C[C@H]1C(=O)O [1-(3-mercapto-2S-methylpropanoyl)-indoline-2S-carboxylic acid] as the molecule, how does the “inhibitory effect against the angiotensin I pressure response” value read?
Its value is “inhibitory effect”.
